The assay concerns the target T1, ER protein (Homo sapiens, UniProt P03372).
T1 sequence (P03372 1-595): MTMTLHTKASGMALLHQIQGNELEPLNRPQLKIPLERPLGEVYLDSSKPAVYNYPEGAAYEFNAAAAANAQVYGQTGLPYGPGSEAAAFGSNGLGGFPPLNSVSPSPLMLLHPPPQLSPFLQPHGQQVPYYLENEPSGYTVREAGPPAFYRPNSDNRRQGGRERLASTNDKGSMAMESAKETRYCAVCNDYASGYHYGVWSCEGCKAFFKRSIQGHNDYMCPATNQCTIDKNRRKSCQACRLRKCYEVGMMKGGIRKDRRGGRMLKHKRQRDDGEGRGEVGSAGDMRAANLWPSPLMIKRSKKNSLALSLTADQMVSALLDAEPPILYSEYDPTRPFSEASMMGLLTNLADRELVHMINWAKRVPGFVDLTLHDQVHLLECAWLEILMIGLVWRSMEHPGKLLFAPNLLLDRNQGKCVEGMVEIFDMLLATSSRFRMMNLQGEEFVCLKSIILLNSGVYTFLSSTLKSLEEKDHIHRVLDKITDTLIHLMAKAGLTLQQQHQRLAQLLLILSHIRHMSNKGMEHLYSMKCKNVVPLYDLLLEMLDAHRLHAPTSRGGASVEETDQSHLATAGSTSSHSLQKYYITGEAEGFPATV
The assay is described as follows: Western blotting analysis of ER protein degradation in T47D cell line. In kind it is cell-based. Also on record: western blotting detection of the level of intracellular ER protein; endogenous in cells; host or cells: T47D. The conditions noted are these: degradation of ER protein, T47D cells, drug treatment for 16 hours, Western blot gray values vs DMSO control; read-out: DC50 (nM)/T47Dcell line. The method, then:
T47D cells were cultured in an incubator with 5% CO2 at 37° C. Complete medium was RPMI1640 supplemented with 10% Foetal bovine serum (FBS), 100 U/ml Penicillin and Streptomycin, and 0.77 μg/mL recombinant human insulin. Western blotting analysis of T47D cell line: • Cells were plated in a 24-well plate at a cell seeding […] of 1.5×10^5 cells/mL, with 1 ml cell suspensions per well. • After 24 h the cells were adherent, and the cells in each well were treated with 1 μL a certain concentration of ER protein regulators of the present disclosure. […] Afterwards, the membranes were block by using the Blocking Buffer, and the antibody incubation and development were performed. (The above procedures were all based on the antibody product manual of the manufacturer) DC50 value (the drug concentration required for degrading proteins by 50%, abbreviated as DC50) reads method: comparing the gray values of the Western blotting bands for the drug treatment with the gray values of the Western blotting band for the DMSO control, and reading the drug concentration range corresponding to the gray value of the Western blotting bands for the drug treatment which is equal to half of the gray value of the Western blotting band for the DMSO control. DC50 value could also be calculated as follows: using software ImageJ to quantify the gray values of the Western blotting bands for the drug treatment, fitting the relationship curve between drug concentrations and gray values, and from the fitted curve, calculating the drug concentration corresponding to half of the gray value of the Western blotting band for the DMSO control.
A general note: A western blot detects proteins with antibodies after separation by electrophoresis.

The structures appear in SMILES notation.

`Cc1ncsc1-c1ccc(CNC(=O)[C@@H]2C[C@@H](O)CN2C(=O)[C@@H](NC(=O)CCOCCOCCOCCOCCOCCC(=O)N(C)CCOc2ccc(/C(=C(/CCCl)c3ccccc3)c3ccccc3)cc2)C(C)(C)C)cc1` [SIAIS180022, N1-(2-(4-((Z)-4-chloro-1,2-diphenylbut-1-en-1-yl)phenoxy)ethyl)-N19-((S)-1-((2S,4R)-4-hydroxy-2-((4-(4-methylthiazol-5-yl)benzyl)carbamoyl)pyrrolidin-1-yl)-3,3-dimethyl-1-oxobutan-2-yl)-N1-methyl-4,7,10,13,16-pentaoxanonadecanediamide]: the DC50 is < 50 nM.
The same measure for `Cc1ncsc1-c1ccc(CNC(=O)[C@@H]2C[C@@H](O)CN2C(=O)[C@@H](NC(=O)CCOCCOCCC(=O)N(C)CCOc2ccc(/C(=C(/CCCl)c3ccccc3)c3ccccc3)cc2)C(C)(C)C)cc1` [SIAIS180023, (2S,4R)-1-((S)-2-(tert-butyl)-16-(4-((Z)-4-chloro-1,2-diphenylbut-1-en-1-yl)phenoxy)-14-methyl-4,13-dioxo-7,10-dioxa-3,14-diazahexadecanoyl)-4-hydroxy-N-(4-(4-methylthiazol-5-yl)benzyl)pyrrolidine-2-carboxamide]: < 50 nM; for `Cc1ncsc1-c1ccc(CNC(=O)[C@@H]2C[C@@H](O)CN2C(=O)[C@@H](NC(=O)CCOCCOCCOCCC(=O)N(C)CCOc2ccc(/C(=C(/CCCl)c3ccccc3)c3ccccc3)cc2)C(C)(C)C)cc1` [SIAIS180024, (2S,4R)-1-((S)-2-(tert-butyl)-19-(4-((Z)-4-chloro-1,2-diphenylbut-1-en-1-yl)phenoxy)-17-methyl-4,16-dioxo-7,10,13-trioxa-3,17-diazanonadecanoyl)-4-hydroxy-N-(4-(4-methylthiazol-5-yl)benzyl)pyrrolidine-2-carboxamide]: < 50 nM; for `Cc1ncsc1-c1ccc(CNC(=O)[C@@H]2C[C@@H](O)CN2C(=O)[C@@H](NC(=O)CCOCCOCCOCCOCCC(=O)N(C)CCOc2ccc(/C(=C(/CCCl)c3ccccc3)c3ccccc3)cc2)C(C)(C)C)cc1` [SIAIS180025, N1-(2-(4-((Z)-4-chloro-1,2-diphenylbut-1-en-1-yl)phenoxy)ethyl)-N16-((S)-1-((2S,4R)-4-hydroxy-2-((4-(4-methylthiazol-5-yl)benzyl)carbamoyl)pyrrolidin-1-yl)-3,3-dimethyl-1-oxobutan-2-yl)-N1-methyl-4,7,10,13-tetraoxahexadecanediamide]: < 50 nM.
The figure for `Cc1ncsc1-c1ccc(CNC(=O)[C@@H]2C[C@@H](O)CN2C(=O)[C@@H](NC(=O)CCCCCC(=O)N(C)CCOc2ccc(/C(=C(/CCCl)c3ccccc3)c3ccccc3)cc2)C(C)(C)C)cc1` [SIAIS180029, N1-(2-(4-((Z)-4-chloro-1,2-diphenylbut-1-en-1-yl)phenoxy)ethyl)-N7-((S)-1-((2S,4R)-4-hydroxy-2-((4-(4-methylthiazol-5-yl)benzyl)carbamoyl)pyrrolidin-1-yl)-3,3-dimethyl-1-oxobutan-2-yl)-N1-methylheptanediamide] is 100 nM; for `Cc1ncsc1-c1ccc(CNC(=O)[C@@H]2C[C@@H](O)CN2C(=O)[C@@H](NC(=O)CCCCCCC(=O)N(C)CCOc2ccc(/C(=C(/CCCl)c3ccccc3)c3ccccc3)cc2)C(C)(C)C)cc1` [SIAIS180033, N1-(2-(4-((Z)-4-chloro-1,2-diphenylbut-1-en-1-yl)phenoxy)ethyl)-N8-((S)-1-((2S,4R)-4-hydroxy-2-((4-(4-methylthiazol-5-yl)benzyl)carbamoyl)pyrrolidin-1-yl)-3,3-dimethyl-1-oxobutan-2-yl)-N1-methyloctanediamide] it is < 50 nM.
As to `Cc1ncsc1-c1ccc(CNC(=O)[C@@H]2C[C@@H](O)CN2C(=O)[C@@H](NC(=O)CCCCCCCC(=O)N(C)CCOc2ccc(/C(=C(/CCCl)c3ccccc3)c3ccccc3)cc2)C(C)(C)C)cc1` [SIAIS180035, N1-(2-(4-((Z)-4-chloro-1,2-diphenylbut-1-en-1-yl)phenoxy)ethyl)-N9-((S)-1-((2S,4R)-4-hydroxy-2-((4-(4-methylthiazol-5-yl)benzyl)carbamoyl)pyrrolidin-1-yl)-3,3-dimethyl-1-oxobutan-2-yl)-N1-methylnonanediamide], the DC50 is < 200 nM.
The same measure for `Cc1ncsc1-c1ccc(CNC(=O)[C@@H]2C[C@@H](O)CN2C(=O)[C@@H](NC(=O)CCCCCCCCC(=O)N(C)CCOc2ccc(/C(=C(/CCCl)c3ccccc3)c3ccccc3)cc2)C(C)(C)C)cc1` [SIAIS180036, N1-(2-(4-((Z)-4-chloro-1,2-diphenylbut-1-en-1-yl)phenoxy)ethyl)-N10-((S)-1-((2S,4R)-4-hydroxy-2-((4-(4-methylthiazol-5-yl)benzyl)carbamoyl)pyrrolidin-1-yl)-3,3-dimethyl-1-oxobutan-2-yl)-N1-methyldecanediamide]: < 200 nM; for `Cc1ncsc1-c1ccc(CNC(=O)[C@@H]2C[C@@H](O)CN2C(=O)[C@@H](NC(=O)CCN2CCN(CCC(=O)NCCOc3ccc(C(=C(CCCl)c4ccccc4)c4ccc(O)cc4)cc3)CC2)C(C)(C)C)cc1` [SIAIS208107, (2S,4R)-1-((S)-2-(3-(4-(3-((2-(4-(4-chloro-1-(4-hydroxyphenyl)-2-phenylbut-1-en-1-yl)phenoxy)ethyl)amino)-3-oxopropyl)piperazin-1-yl)propanamido)-3,3-dimethylbutanoyl)-4-hydroxy-N-(4-(4-methylthiazol-5-yl)benzyl)pyrrolidine-2-carboxamide]: < 200 nM; for `Cc1ncsc1-c1ccc(CNC(=O)[C@@H]2C[C@@H](O)CN2C(=O)[C@@H](NC(=O)CCc2ccc(CCC(=O)N(C)CCOc3ccc(/C(=C(/CCCl)c4ccccc4)c4ccccc4)cc3)cc2)C(C)(C)C)cc1` [SIAIS208125, (2S,4R)-1-((S)-2-(3-(4-(3-((2-(4-((Z)-4-chloro-1,2-diphenylbut-1-en-1-yl)phenoxy)ethyl)(methyl)amino)-3-oxopropyl)phenyl)propanamido)-3,3-dimethylbutanoyl)-4-hydroxy-N-(4-(4-methylthiazol-5-yl)benzyl)pyrrolidine-2-carboxamide]: < 200 nM.
As for `Cc1ncsc1-c1ccc(CNC(=O)[C@@H]2C[C@@H](O)CN2C(=O)[C@@H](NC(=O)CCc2ccc(CCC(=O)NCCOc3ccc(C(=C(CCCl)c4ccccc4)c4ccc(O)cc4)cc3)cc2)C(C)(C)C)cc1` [SIAIS208127, (2S,4R)-1-((S)-2-(3-(4-(3-((2-(4-(4-chloro-1-(4-hydroxyphenyl)-2-phenylbut-1-en-1-yl)phenoxy)ethyl)amino)-3-oxopropyl)phenyl)propanamido)-3,3-dimethylbutanoyl)-4-hydroxy-N-(4-(4-methylthiazol-5-yl)benzyl)pyrrolidine-2-carboxamide], the DC50 is < 100 nM.
As to `CN(CCOc1ccc(/C(=C(/CCCl)c2ccccc2)c2ccccc2)cc1)C(=O)CCN1CCN(CCNc2cccc3c2C(=O)N(C2CCC(=O)NC2=O)C3=O)CC1` (centres unmarked) [SIAIS208135, (Z)-N-(2-(4-(4-chloro-1,2-diphenylbut-1-en-1-yl)phenoxy)ethyl)-3-(4-(2-((2-(2,6-dioxopiperidin-3-yl)-1,3-dioxoisoindolin-4-yl)amino)ethyl)piperazin-1-yl)-N-methylpropanamide], the DC50 is < 200 nM.
The figure for `O=C(CCCCNc1cccc2c1C(=O)N(C1CCC(=O)NC1=O)C2=O)NCCOc1ccc(C(=C(CCCl)c2ccccc2)c2ccc(O)cc2)cc1` (centres unmarked) [SIAIS208144, N-(2-(4-(4-chloro-1-(4-hydroxyphenyl)-2-phenylbut-1-en-1-yl)phenoxy)ethyl)-5-((2-(2,6-dioxopiperidin-3-yl)-1,3-dioxoisoindolin-4-yl)amino)pentanamide] is < 100 nM; for `O=C(CCCCCCNc1cccc2c1C(=O)N(C1CCC(=O)NC1=O)C2=O)NCCOc1ccc(C(=C(CCCl)c2ccccc2)c2ccc(O)cc2)cc1` (centres unmarked) [SIAIS208145, N-(2-(4-(4-chloro-1-(4-hydroxyphenyl)-2-phenylbut-1-en-1-yl)phenoxy)ethyl)-7-((2-(2,6-dioxopiperidin-3-yl)-1,3-dioxoisoindolin-4-yl)amino)heptanamide] it is < 100 nM.
